Assays:
Format in all cases: in vivo
[1] = system: velvetleaf (Abutilon theophrasti); assay: Test A preemergence; details: for Plant response rating, Velvetleaf: 125 g ai/ha, preemergence, 0 to 100 scale (0 no effect, 100 complete control); for Velvetleaf plant response rating (0 to 100 scale): Preemergence, 500 g ai/ha, 0 is no effect, 100 is complete control
How it was run: (§1)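 Seeded soil received test chemicals as a preemergence directed spray, and seedlings at one to two leaves, 2–10 cm tall, received them postemergence, in a non-phytotoxic, surfactant-containing solvent mixture. Pots were held in a greenhouse for approximately 10 d, then rated for injury from 0, no effect, to 100, complete control.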

[2] = system: giant foxtail (Setaria faberii); assay: Test A preemergence; details: for Plant response rating, Foxtail, Giant: 125 g ai/ha, preemergence, 0 to 100 scale (0 no effect, 100 complete control); for Foxtail, Giant plant response rating (0 to 100 scale): Preemergence, 500 g ai/ha, 0 is no effect, 100 is complete control
How it was run: as §1

[3] = system: pigweed (Amaranthus retroflexus); assay: Test A preemergence; details: for Plant response rating, Pigweed: 125 g ai/ha, preemergence, 0 to 100 scale (0 no effect, 100 complete control); for Pigweed plant response rating (0 to 100 scale): Preemergence, 500 g ai/ha, 0 is no effect, 100 is complete control
[4] = system: barnyardgrass (Echinochloa crus-galli); assay: Test A preemergence; details: for Plant response rating, Barnyardgrass: 125 g ai/ha, preemergence, 0 to 100 scale (0 no effect, 100 complete control); for Barnyardgrass plant response rating (0 to 100 scale): Preemergence, 500 g ai/ha, 0 is no effect, 100 is complete control
How it was run: as §1

[5] = system: wheat (Triticum aestivum); assay: Test A preemergence; details: for Plant response rating, Wheat: 125 g ai/ha, preemergence, 0 to 100 scale (0 no effect, 100 complete control); for Wheat plant response rating (0 to 100 scale): Preemergence, 500 g ai/ha, 0 is no effect, 100 is complete control
How it was run: as §1

[6] = system: crabgrass, large (Digitaria sanguinalis); assay: Test A preemergence; details: for Plant response rating, Crabgrass, Large: 125 g ai/ha, preemergence, 0 to 100 scale (0 no effect, 100 complete control); for Crabgrass, Large plant response rating (0 to 100 scale): Preemergence, 500 g ai/ha, 0 is no effect, 100 is complete control
How it was run: as §1

[7] = system: morningglory (Ipomoea spp.); assay: Test A preemergence; details: for Plant response rating, Morningglory: 125 g ai/ha, preemergence, 0 to 100 scale (0 no effect, 100 complete control); for Morningglory plant response rating (0 to 100 scale): Preemergence, 500 g ai/ha, 0 is no effect, 100 is complete control
How it was run: as §1

corn (Zea mays) [8] = assay: Test A preemergence; details: for Plant response rating, Corn: 125 g ai/ha, preemergence, 0 to 100 scale (0 no effect, 100 complete control); for Corn plant response rating (0 to 100 scale): Preemergence, 500 g ai/ha, 0 is no effect, 100 is complete control
How it was run: as §1

[9] = system: barnyardgrass (Echinochloa crus-galli); assay: Test C flooded paddy test; details: Flood, 0 is no effect, 100 is complete control
How it was run: (§2)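 Rice, small-flower umbrella sedge, ducksalad and barnyardgrass at the 2-leaf stage were flooded to 3 cm, and compound was applied into the paddy water. After 13 to 15 d in a greenhouse, plants were rated visually against controls on a 0 (no effect) to 100 (complete control) scale.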

[10] = system: ducksalad (Heteranthera limosa); assay: Test C flooded paddy test; details: Flood, 0 is no effect, 100 is complete control
How it was run: as §2

rice (Oryza sativa) = assay: Test C flooded paddy test; details: Flood, 0 is no effect, 100 is complete control
How it was run: as §2

[11] = system: sedge, umbrella (small-flower umbrella sedge, Cyperus difformis); assay: Test C flooded paddy test; details: Flood, 0 is no effect, 100 is complete control
How it was run: as §2

[12] = system: velvetleaf (Abutilon theophrasti); assay: Test A postemergence
How it was run: as §1

[13] = system: giant foxtail (Setaria faberii); assay: Test A postemergence
How it was run: as §1

[14] = system: pigweed (Amaranthus retroflexus); assay: Test A postemergence
How it was run: as §1

[15] = system: barnyardgrass (Echinochloa crus-galli); assay: Test A postemergence
How it was run: as §1

[16] = system: wheat (Triticum aestivum); assay: Test A postemergence
How it was run: as §1

[17] = system: crabgrass, large (Digitaria sanguinalis); assay: Test A postemergence
How it was run: as §1

[18] = system: morningglory (Ipomoea spp.); assay: Test A postemergence
How it was run: as §1

corn (Zea mays) [19] = assay: Test A postemergence
How it was run: as §1

[20] = 500 g ai/ha, postemergence, 0 to 100 scale, 0 no effect, 100 complete control
[21] = Postemergence, 125 g ai/ha, visual injury, 0 to 100 scale (0 no effect, 100 complete control), approx. 10 d

O=C1NCC(c2ccoc2)C1C(=O)Nc1ccccc1F (racemic) [Compound 356]
0: Plant response rating, Velvetleaf [1] | Velvetleaf plant response rating (0 to 100 scale) [1] | Plant response rating, Foxtail, Giant [2] | Foxtail, Giant plant response rating (0 to 100 scale) [2] | Plant response rating, Pigweed [3] | Pigweed plant response rating (0 to 100 scale) [3] | Plant response rating, Barnyardgrass [4] | Barnyardgrass plant response rating (0 to 100 scale) [4] | Plant response rating, Wheat [5] | Wheat plant response rating (0 to 100 scale) [5] | Plant response rating, Crabgrass, Large [6] | Crabgrass, Large plant response rating (0 to 100 scale) [6] | Plant response rating, Morningglory [7] | Morningglory plant response rating (0 to 100 scale) [7] | Plant response rating, Corn (corn (Zea mays) [8]) | Corn plant response rating (0 to 100 scale) (corn (Zea mays) [8]) | Plant response rating (scale of 0 to 100), Barnyardgrass ([9]; 62 g ai/ha) | Plant response rating (scale of 0 to 100), Barnyardgrass ([9]; 250 g ai/ha) | Plant response rating (scale of 0 to 100), Ducksalad ([10]; 62 g ai/ha) | Plant response rating (scale of 0 to 100), Ducksalad ([10]; 250 g ai/ha) | Plant response rating (scale of 0 to 100), Rice (rice (Oryza sativa); 62 g ai/ha) | Plant response rating (scale of 0 to 100), Rice (rice (Oryza sativa); 250 g ai/ha) | Plant response rating (scale of 0 to 100), Sedge, Umbrella ([11]; 62 g ai/ha) | Plant response rating (scale of 0 to 100), Sedge, Umbrella ([11]; 250 g ai/ha) | Plant response rating, Velvetleaf [12, 20] | Plant response rating, Velvetleaf [12, 21] | Plant response rating, Foxtail, Giant [13, 20] | Plant response rating, Foxtail, Giant [13, 21] | Plant response rating, Pigweed [14, 20] | Plant response rating, Pigweed [14, 21] | Plant response rating, Barnyardgrass [15, 20] | Plant response rating, Barnyardgrass [15, 21] | Plant response rating, Wheat [16, 20] | Plant response rating, Wheat [16, 21] | Plant response rating, Crabgrass, Large [17, 20] | Plant response rating, Crabgrass, Large [17, 21] | Plant response rating, Morningglory [18, 20] | Plant response rating, Morningglory [18, 21] | Plant response rating, Corn (corn (Zea mays) [19]; [20]) | Plant response rating, Corn (corn (Zea mays) [19]; [21])

O=C1NCC(c2ccoc2)C1C(=O)Nc1ccccc1C(F)(F)F (racemic) [Compound 364]
0: Plant response rating, Velvetleaf [1] | Velvetleaf plant response rating (0 to 100 scale) [1] | Plant response rating, Foxtail, Giant [2] | Foxtail, Giant plant response rating (0 to 100 scale) [2] | Plant response rating, Pigweed [3] | Pigweed plant response rating (0 to 100 scale) [3] | Plant response rating, Barnyardgrass [4] | Barnyardgrass plant response rating (0 to 100 scale) [4] | Plant response rating, Wheat [5] | Wheat plant response rating (0 to 100 scale) [5] | Plant response rating, Crabgrass, Large [6] | Crabgrass, Large plant response rating (0 to 100 scale) [6] | Plant response rating, Morningglory [7] | Morningglory plant response rating (0 to 100 scale) [7] | Plant response rating, Corn (corn (Zea mays) [8]) | Corn plant response rating (0 to 100 scale) (corn (Zea mays) [8]) | Plant response rating (scale of 0 to 100), Barnyardgrass ([9]; 31 g ai/ha) | Plant response rating (scale of 0 to 100), Barnyardgrass ([9]; 62 g ai/ha) | Plant response rating (scale of 0 to 100), Barnyardgrass ([9]; 125 g ai/ha) | Plant response rating (scale of 0 to 100), Barnyardgrass ([9]; 250 g ai/ha) | Plant response rating (scale of 0 to 100), Ducksalad ([10]; 31 g ai/ha) | Plant response rating (scale of 0 to 100), Ducksalad ([10]; 62 g ai/ha) | Plant response rating (scale of 0 to 100), Ducksalad ([10]; 125 g ai/ha) | Plant response rating (scale of 0 to 100), Ducksalad ([10]; 250 g ai/ha) | Plant response rating (scale of 0 to 100), Rice (rice (Oryza sativa); 31 g ai/ha) | Plant response rating (scale of 0 to 100), Rice (rice (Oryza sativa); 62 g ai/ha) | Plant response rating (scale of 0 to 100), Rice (rice (Oryza sativa); 125 g ai/ha) | Plant response rating (scale of 0 to 100), Rice (rice (Oryza sativa); 250 g ai/ha) | Plant response rating (scale of 0 to 100), Sedge, Umbrella ([11]; 31 g ai/ha) | Plant response rating (scale of 0 to 100), Sedge, Umbrella ([11]; 62 g ai/ha) | Plant response rating (scale of 0 to 100), Sedge, Umbrella ([11]; 125 g ai/ha) | Plant response rating (scale of 0 to 100), Sedge, Umbrella ([11]; 250 g ai/ha) | Plant response rating, Velvetleaf [12, 20] | Plant response rating, Foxtail, Giant [13, 20] | Plant response rating, Foxtail, Giant [13, 21] | Plant response rating, Pigweed [14, 20] | Plant response rating, Pigweed [14, 21] | Plant response rating, Barnyardgrass [15, 20] | Plant response rating, Barnyardgrass [15, 21] | Plant response rating, Wheat [16, 20] | Plant response rating, Wheat [16, 21] | Plant response rating, Crabgrass, Large [17, 20] | Plant response rating, Crabgrass, Large [17, 21] | Plant response rating, Morningglory [18, 20] | Plant response rating, Morningglory [18, 21] | Plant response rating, Corn (corn (Zea mays) [19]; [20]) | Plant response rating, Corn (corn (Zea mays) [19]; [21])

— US12077503B2, “Substituted cyclic amides and their use as herbicides” (FMC CORPORATION, priority 2015, dated 2024)
